Reference: patent US20220265683A1, “HALOGENATED SALICYLANILIDES FOR THE TREATMENT OF DERMATITIS” (priority 2018, published 2022)
Marks after values point to notes of the source that are not given here.

Legend:
[1] = system: biomarkers in lesional AD skin; settings: 4 weeks, qRT-PCR; cited from earlier work
[2] = system: skin barrier and inflammation biomarkers in lesional skin biopsies; experiment: Biomarker gene expression in lesional skin biopsies by qRT-PCR (TLDA), Example 3; assay type: in vivo, human; settings: only responder population, 3 weeks
Protocol: (§1) Patients received topical applications of a niclosamide 2% composition and vehicle once daily for 3 weeks, followed by a 1-week follow up period. Topical niclosamide 2% and vehicle was applied on two separate target lesions of atopic dermatitis (lesions of at least 3×3-cm that are at least 2 cm apart, excluding the face, scalp, genitals, hands, and feet). The application areas (5×5-cm) were randomized (1:1) to once daily application of niclosamide 2% or vehicle at 5 mg/cm^2 without occlusion 6 days per week. Patients came to the study site for all study product application for a total of 3 weeks.
(§2) Three skin biopsies were collected in all patients (one from lesional skin at baseline, pre-dosing at Day 1, and two from lesional skin at Day 22 (one where topical niclosamide 2% had been applied and one where the vehicle had been applied). The lesional skin biopsies were analysed for skin thickness and inflammation biomarkers.
Skin barrier and inflammation biomarker levels were determined from lesional skin biopsies from application areas.
(§3) The skin biopsy samples were analysed by immunohistochemistry (IHC), and by gene expression studies by RT-PCR using TaqMan Low Density Array (TLDA), and by microarray using Affymetrix U133A Plus 2. The immunohistochemistry (IHC) was used to analyse cell biomarkers. The methodologies as disclosed by Guttman-Yassky et al, “Major differences in inflammatory dendritic cells and their products distinguish atopic dermatitis from psoriasis”, The Journal of Allergy and Clinical Immunology, vol. 119, issue 5, pages 1210-1217, 2007, were followed except for that U133A Plus 2-set Gene Chip probe arrays was used instead of U95A-set Gene Chip probe arrays.
Expression values (threshold cycle [Ct]) were normalized to Rplp0 by negatively transforming the Ct values to −dCt (IL17A was normalized to hARP, as analysed by qPCR). The undetected −dCt values were estimated for each gene as the 20% of the minimum across all samples. qRT-PCR expression data were modelled using a mixed effect model with Visit and Treatment Area as a fixed effect and a random intercept for each patient. This formulation intrinsically models the within patient correlation structure as in the case of a paired t-test. This approach introduces less bias than restricting the analysis for those patients who completed the study. Contrasts were used to estimate the fold changes with treatment within each treatment group and conduct hypothesis testing.

[3] = system: dendritic cells; settings: in-vitro; cited from earlier work
[4] = system: skin barrier and inflammation biomarkers in lesional skin biopsies; experiment: Biomarker gene expression in lesional skin biopsies by microarray (Affymetrix U133A Plus 2), Example 3; assay type: in vivo, human
Protocol: as §1, §2, §3
Experimental design: The hybridization strategy was in concordance with experimental design principles, by for example keeping all samples from the same patient in the same date, and always include samples from every treatment arm/group.
Quality Control and Pre-processing: Quality control of microarray chips were carried out using standard QC metrics and R package microarray Quality Control. Expression measures were obtained using GCRMA algorithm (Wu & Irizarry, 2004). Several visual and modelling techniques were used to elucidate if batch effect existed. Principal Component analysis plots were used to detect if any evident batch effect existed. If such batch effects were found, they were adjusted using Combat, an empirical Bayes method for adjusting data for batch effects that is robust to outliers in small sample sizes (Johnson, Li, & Rabinovic, 2007). The implementation of Combat by package sva was used.
Probe-sets with at least 5% samples with expression larger than 3 (in log 2-scale) were kept for further analysis. Expression values were modelled using mixed-effect models with fixed factors Visit and Treatment Area and a random effect for each patient. Fold changes for the comparisons of interest were estimated and hypothesis testing was conducted on such comparisons using contrasts under the general framework for linear models in limma package. The inter-replicate correlation was computed by Duplicate Correlation function and the linear model was estimated by ImFit. P-values from the moderated (paired) t-test were adjusted for multiple hypotheses using the Benjamini-Hochberg procedure, which controls for FDR.

[5] = system: CD3, langerin, CD11c and FceR1 cells in skin biopsies; experiment: Immunohistochemistry (IHC) of cell markers in lesional skin biopsies, Example 3; assay type: in vivo, human; settings: Day 22, 2% topical
Protocol: as §2, §3

[6] = microarray fold change, Day 22, sign as niclosamide vs vehicle
[7] = only responder population, 3 weeks, Microarray

Compound: Dupilumab: inhibits interleukin-4 and interleukin-13 signalling by binding to interleukin-4 receptor α
- CCL17, Dupilumab 300 mg vs. predose [1]: −9.2^b
- CCL18, Dupilumab 300 mg vs. predose [1]: −7.6^c
- CCL22, Dupilumab 300 mg vs. predose [1]: −2.1^d
- CCL26, Dupilumab 300 mg vs. predose [1]: −6.3^c
- K16/KRT16, Dupilumab 300 mg vs. predose [1]: −10.7^b
- MMP12, Dupilumab 300 mg vs. predose [1]: −14^b
- S100A8, Dupilumab 300 mg vs. predose [1]: −3^d
- S100A12, Dupilumab 300 mg vs. predose [1]: −10.4^b

Compound: O=C(Nc1ccc([N+](=O)[O-])cc1Cl)c1cc(Cl)ccc1O [Niclosamide, niclosamide]
- CCL17, Niclosamide 2% qd vs. predose [2]: −3.42^d
- CCL18, Niclosamide 2% qd vs. predose [2]: −3.46^d
- CCL20, Niclosamide 2% qd vs. predose [2]: −2^d
- CCL22, Niclosamide 2% qd vs. predose [2]: −2.56^d
- CXCL1, Niclosamide 2% qd vs. predose [2]: −3.82^d
- CXCL2, Niclosamide 2% qd vs. predose [2]: −2.11^d
- CXCL10, Niclosamide 2% qd vs. predose [2]: −1.96^d
- DEFB4B, Niclosamide 2% qd vs. predose [2]: −7.18^c
- FLG, Niclosamide 2% qd vs. predose [2]: 2.06^e
- IL5, Niclosamide 2% qd vs. predose [2]: −3.69^d
- IL10, Niclosamide 2% qd vs. predose [2]: −2.16^d
- IL13, Niclosamide 2% qd vs. predose [2]: −3.18^d
- IL17A, Niclosamide 2% qd vs. predose [2]: −3.12^d
- IL17C, Niclosamide 2% qd vs. predose [2]: −3.91^d
- IL19, Niclosamide 2% qd vs. predose [2]: −6.65^c
- K16/KRT16, Niclosamide 2% qd vs. predose [2]: −8.46^c
- LOR, Niclosamide 2% qd vs. predose [2]: 2.84^f
- MMP12, Niclosamide 2% qd vs. predose [2]: −5.12^c
- PI3, Niclosamide 2% qd vs. predose [2]: −11.2^b
- S100A12, Niclosamide 2% qd vs. predose [2]: −10.5^b
- LPS-induced dendritic cell maturation, cytokine, costimulatory and MHC molecule expression [3]: inhibitory action
- CXCL1, 2% niclosamide compared to vehicle [4, 6]: −2.10
- S100A12, 2% niclosamide compared to vehicle [4, 6]: −2.30
- CD3d, Niclosamide 2% qd vs. predose [4, 7]: −2.2^d
- IL4R, Niclosamide 2% qd vs. predose [4, 7]: −2.19^d
- IL15, Niclosamide 2% qd vs. predose [4, 7]: −1.59^d
- IL22, Niclosamide 2% qd vs. predose [4, 7]: −2.1^d
- JAK3, Niclosamide 2% qd vs. predose [4, 7]: −1.86^d
- S100A8, Niclosamide 2% qd vs. predose [4, 7]: −1.82^d
- S100A9, Niclosamide 2% qd vs. predose [4, 7]: −5.15^d
- STAT3, Niclosamide 2% qd vs. predose [4, 7]: −1.54^d
- inflammatory cells (dendritic cells: CD11c, FceR1 in epidermis; Langerhans cells: langerin/CD207) compared to baseline [5]: Significant reductions in inflammatory cells
- total amount of T cells (dermis and epidermis) compared to baseline [5]: No significant change
